This note sets out measurements from patent US4895933A, “New antitumor agent obtained by microbial stereoselective reduction of 4'-deoxy-4'-iododoxorubicin” (Farmitalia Carlo Erba S.p.A., priority 1987, dated 1990).

≈ marks a conversion by molar mass, not a printed value. Read-outs that look alike come from different tables or passages of the source.

The test system of one data set is HeLa cells. The experiment in a line: in vitro cytotoxic activity, HeLa cells colony formation. It is filed as cell-based, human. To be noted: for IC50: HeLa, read-out: ID50 (dose giving 50% reduction of cell number in comparison with untreated controls). The source says: ^(a) Dose giving 50% reduction of cell number in comparison with […]
For another data set, the system named is P388 leukemia cells. The experiment in a line: in vitro cytotoxic activity, P388 cells colony formation. It is filed as cell-based. As to conditions: for IC50: Mus musculus. The source says: ^(a) Dose giving 50% reduction of cell number in comparison with
^(c) P388 leukemia cells.

In data set [1] the test system is disseminated Gross leukemia. The experiment in a line: in vivo antitumor activity against disseminated Gross leukemia. Set-up: species or system C3H mice. To be noted: for Toxic deaths (evaluated on the basis of autopsy findings on dead mice): C3H mice; for T/C % (median survival time of treated mice/median survival time of controls × 100): day after tumor injection, in parentheses: single experiments. As to the method:
The "in vivo" antitumor activity, FCE 24883 (II) was tested against disseminated Gross leukemia. C3H mice were injected intravenously with 2.10^6 cell/mouse and treated with compounds under study 24 hours after the tumor injection.
^(a) C3H mice were injected i.v. with 2 × 10^6 leukemia
cells and treated i.v. with the compounds the day after the tumor
^(b) (Median survival time of treated mice/median survival time of
^(c) Evaluated on the basis of autopsy findings on dead mice.

The next data set is described as follows: solubility. It counts as physicochemical.
The test system of the next data set is experimental tumors. The experiment in a line: activity on experimental tumors (general statement). As to conditions: in vivo.
Where [2] appears, read: human cervix epithelioid carcinoma cells.
The mark [3] stands for this setting: P388 leukemia cells, read-out: ID50 (dose giving 50% reduction of cell number in comparison with untreated controls).

As to `COc1cccc2c1C(=O)c1c(O)c3c(c(O)c1C2=O)C[C@@](O)([C@@H](O)CO)C[C@@H]3O[C@H]1C[C@H](N)[C@H](I)[C@H](C)O1` [FCE 24883 (II), 4'-deoxy-13(S)-dihydro-4'-iododoxorubicin], the “cytotoxic activity, potency in comparison with compound I and doxorubicin” value was “as potent as 4'-deoxy-4'-iododoxorubicin (I) and doxorubicin” in the data set with HeLa cells (HeLa cells, in vitro); “as potent as 4'-deoxy-4'-iododoxorubicin (I) and doxorubicin” with P388 leukemia cells (P388 cells, in vitro). Moreover, the IC50 with HeLa cells (setting [2]) was determined as 8 ng/mL (≈ 0.0122 µM); in the data set on P388 leukemia cells (setting [3]) it was 3.5 ng/mL (≈ 0.00534 µM). Besides, the “Toxic deaths (evaluated on the basis of autopsy findings on dead mice)” value (from here on “Toxic deaths”) in data set [1] (4 mg/Kg i.v.) is 0/10; in data set [1] (5.2 mg/Kg i.v.), 0/20; in data set [1] (6.8 mg/Kg i.v.), 0/20; in data set [1] (8.8 mg/Kg i.v.), 5/9. In addition, the “T/C % (median survival time of treated mice/median survival time of controls × 100)” value in data set [1] (4 mg/Kg i.v.) was 180 (180) %; in data set [1] (5.2 mg/Kg i.v.) it was 220 (220, 220) %; in data set [1] (6.8 mg/Kg i.v.), 220 (220, 220) %; in data set [1] (8.8 mg/Kg i.v.), 140 (140) %. In data set [1] (at the active doses), the toxicity displayed result is on record as “minor toxicity”. In data set [1] (at the optimal dose), the “antitumor potency in comparison with compound I” value is on record as “as potent as 4'-deoxy-4'-iododoxorubicin (I)”. Further, the “antitumor potency in comparison with doxorubicin” value in data set [1] (at the optimal dose) is given as “more potent than doxorubicin”. In addition, the “antitumor activity, evaluated as median survival time of treated over control mice, in comparison with I and doxorubicin” value in data set [1] (mouse, in vivo) is “can be compared with those of I and doxorubicin”. In addition, the “solubility of the free base” value in “solubility” (free base, polar organic solvents and aqueous alcohols) was “soluble in polar organic solvents and aqueous alcohols”. The “solubility of the hydrochloride in organic solvents” value in the data set “solubility” (hydrochloride, organic solvents) is recorded as “slighty soluble in organic solvents”. Also, the “solubility of the hydrochloride in water and lower alcohols” value in “solubility” (hydrochloride, water and lower alcohols) is “soluble in water and lower alcohols”. In addition, in the data set with experimental tumors, the “activity on experimental tumors in comparison with compound I” value is given as “comparable with that of 4'-deoxy-4'-iododoxorubicin (I)”.
Turning to `COc1cccc2c1C(=O)c1c(O)c3c(c(O)c1C2=O)C[C@@](O)(C(=O)CO)C[C@@H]3O[C@H]1C[C@H](N)[C@H](O)[C@H](C)O1` [DX, Doxorubicin], the IC50 came out at 10.8 ng/mL (≈ 0.0199 µM) in the data set on HeLa cells (Homo sapiens) and 8 ng/mL (≈ 0.0147 µM) in the data set on P388 leukemia cells (P388, read-out: ID50 (dose giving 50% reduction of cell number in comparison with untreated controls)). Moreover, the “Toxic deaths” value is 0/20 in data set [1] (10 mg/Kg i.v.), 0/20 in data set [1] (13 mg/Kg i.v.) and 2/20 in data set [1] (16.9 mg/Kg i.v.). Further, the “T/C % (median survival time of treated mice/median survival time of controls × 100)” value was 200 (200, 200) % in data set [1] (10 mg/Kg i.v.); 225 (230, 220) % in data set [1] (13 mg/Kg i.v.); 250 (260, 240) % in data set [1] (16.9 mg/Kg i.v.).
As to `COc1cccc2c1C(=O)c1c(O)c3c(c(O)c1C2=O)C[C@@](O)(C(=O)CO)C[C@@H]3O[C@H]1C[C@H](N)[C@H](I)[C@H](C)O1` [FCE 21954 (I), 4'-deoxy-4'-iododoxorubicin], the IC50 came to 10.4 ng/mL (≈ 0.0159 µM) with HeLa cells (setting [2]) and 2.1 ng/mL (≈ 0.00321 µM) with P388 leukemia cells (setting [3]). Also, the “Toxic deaths” value in data set [1] (4 mg/Kg i.v.) is recorded as 0/20; in data set [1] (5.2 mg/Kg i.v.), 4/20; in data set [1] (6.8 mg/Kg i.v.) it was 19/20. Besides, the “T/C % (median survival time of treated mice/median survival time of controls × 100)” value in data set [1] (4 mg/Kg i.v.) was 240 (240, 240) %; in data set [1] (5.2 mg/Kg i.v.), 260 (260, 260) %; in data set [1] (6.8 mg/Kg i.v.), 145 (160, 130) %.
